The structures appear in SMILES notation. Converted amounts (≈) assume the structure as drawn.

In one assay the test system is Francisella tularensis (FT; Gram-negative). In words: microbe, parasite or virus in culture. As to conditions: read-out: MIC FT. The class given is cell-based.
For `CN(C)CCOc1c2[nH]c3ccc(F)cc3c2cc2c1[nH]c1ccc(F)cc12` [drawing 195], the MIC amounted to 0.25 µg/mL (≈ 0.659 µM).

For the compound `Nc1nnn(CCCOc2c3[nH]c4ccc(Cl)cc4c3cc3c2[nH]c2ccc(Cl)cc23)n1`, the MIC is 1 µg/mL (≈ 2.14 µM).

Turning to `N[C@H]1CC[C@@H](Oc2c3[nH]c4ccc(F)cc4c3cc3c2[nH]c2ccc(F)cc23)CC1`, the MIC worked out at 1 µg/mL (≈ 2.47 µM).

Take `OC1CCN(CCCOc2c3[nH]c4ccc(Cl)cc4c3cc3c2[nH]c2ccc(Cl)cc23)CC1` [drawing 229]: the MIC is 0.25 µg/mL (≈ 0.518 µM).

With `C/N=C(\NC)NCCCOc1c2[nH]c3ccc(Cl)cc3c2cc2c1[nH]c1ccc(Cl)cc12`, the MIC amounted to 1 µg/mL (≈ 2.13 µM).

`Fc1ccc2[nH]c3c(OCCCn4cncn4)c4[nH]c5ccc(F)cc5c4cc3c2c1` [drawing 231]: the MIC is 1 µg/mL (≈ 2.4 µM).

Turning to `NCCOc1c2[nH]c3ccc(F)cc3c2cc2c1[nH]c1ccc(F)cc12`, the MIC is 2 µg/mL (≈ 5.69 µM).

On to `Clc1ccc2[nH]c3c(OCCC4CCNCC4)c4[nH]c5ccc(Cl)cc5c4cc3c2c1`, for which the MIC was 0.5 µg/mL (≈ 1.11 µM).

As for `CNCCOc1c2[nH]c3ccc(F)cc3c2cc2c1[nH]c1ccc(F)cc12`, the MIC is 0.5 µg/mL (≈ 1.37 µM).

With `CCOC(=O)c1ccc2[nH]c3c(OCCN)c4[nH]c5ccc(C(=O)OCC)cc5c4cc3c2c1`, the MIC was found to be 1 µg/mL (≈ 2.18 µM).

Consider `Nc1nnnn1CCCOc1c2[nH]c3ccc(Cl)cc3c2cc2c1[nH]c1ccc(Cl)cc12`, for which the MIC is 1 µg/mL (≈ 2.14 µM).

A further assay deals with Bacillus anthracis (BA; Gram-positive). In words: microbe, parasite or virus in culture. The assay is classed as cell-based. To be noted: read-out: MIC BA.
Consider `CN(C)CCOc1c2[nH]c3ccc(F)cc3c2cc2c1[nH]c1ccc(F)cc12` [drawing 195], for which the MIC turned out to be 0.5 µg/mL (≈ 1.32 µM).

`Nc1nnn(CCCOc2c3[nH]c4ccc(Cl)cc4c3cc3c2[nH]c2ccc(Cl)cc23)n1`: the MIC worked out at 0.5 µg/mL (≈ 1.07 µM).

Regarding `N[C@H]1CC[C@@H](Oc2c3[nH]c4ccc(F)cc4c3cc3c2[nH]c2ccc(F)cc23)CC1`, the MIC was 0.5 µg/mL (≈ 1.23 µM).

Take `OC1CCN(CCCOc2c3[nH]c4ccc(Cl)cc4c3cc3c2[nH]c2ccc(Cl)cc23)CC1` [drawing 229]: the MIC stood at 0.25 µg/mL (≈ 0.518 µM).

Take `C/N=C(\NC)NCCCOc1c2[nH]c3ccc(Cl)cc3c2cc2c1[nH]c1ccc(Cl)cc12`: the MIC stood at 0.5 µg/mL (≈ 1.07 µM).

As to `Fc1ccc2[nH]c3c(OCCCn4cncn4)c4[nH]c5ccc(F)cc5c4cc3c2c1` [drawing 231], the MIC is 0.5 µg/mL (≈ 1.2 µM).

As to `NCCOc1c2[nH]c3ccc(F)cc3c2cc2c1[nH]c1ccc(F)cc12`, the MIC was found to be 4 µg/mL (≈ 11.4 µM).

For `Clc1ccc2[nH]c3c(OCCC4CCNCC4)c4[nH]c5ccc(Cl)cc5c4cc3c2c1`, the MIC was at most 0.25 µg/mL.

Regarding `CNCCOc1c2[nH]c3ccc(F)cc3c2cc2c1[nH]c1ccc(F)cc12`, the MIC was determined as 1 µg/mL (≈ 2.74 µM).

On to `CCOC(=O)c1ccc2[nH]c3c(OCCN)c4[nH]c5ccc(C(=O)OCC)cc5c4cc3c2c1`, for which the MIC is 2 µg/mL (≈ 4.35 µM).

For the compound `Nc1nnnn1CCCOc1c2[nH]c3ccc(Cl)cc3c2cc2c1[nH]c1ccc(Cl)cc12`, the MIC is 0.5 µg/mL (≈ 1.07 µM).

The subject of another assay is Yersinia pestis (YP; Gram-negative). As to the kind of experiment: microbe, parasite or virus in culture. The assay is classed as cell-based. As to conditions: read-out: MIC YP.
On to `CN(C)CCOc1c2[nH]c3ccc(F)cc3c2cc2c1[nH]c1ccc(F)cc12` [drawing 195], for which the MIC is 8 µg/mL (≈ 21.1 µM).

Take `Nc1nnn(CCCOc2c3[nH]c4ccc(Cl)cc4c3cc3c2[nH]c2ccc(Cl)cc23)n1`: the MIC is above 8 µg/mL.

With `N[C@H]1CC[C@@H](Oc2c3[nH]c4ccc(F)cc4c3cc3c2[nH]c2ccc(F)cc23)CC1`, the MIC was 4 µg/mL (≈ 9.87 µM).

Regarding `OC1CCN(CCCOc2c3[nH]c4ccc(Cl)cc4c3cc3c2[nH]c2ccc(Cl)cc23)CC1` [drawing 229], the MIC turned out to be 2 µg/mL (≈ 4.15 µM).

Turning to `C/N=C(\NC)NCCCOc1c2[nH]c3ccc(Cl)cc3c2cc2c1[nH]c1ccc(Cl)cc12`, the MIC is 1 µg/mL (≈ 2.13 µM).

With `Fc1ccc2[nH]c3c(OCCCn4cncn4)c4[nH]c5ccc(F)cc5c4cc3c2c1` [drawing 231], the MIC is above 8 µg/mL.

As to `NCCOc1c2[nH]c3ccc(F)cc3c2cc2c1[nH]c1ccc(F)cc12`, the MIC was 4 µg/mL (≈ 11.4 µM).

As for `Clc1ccc2[nH]c3c(OCCC4CCNCC4)c4[nH]c5ccc(Cl)cc5c4cc3c2c1`, the MIC was determined as 1 µg/mL (≈ 2.21 µM).

`CNCCOc1c2[nH]c3ccc(F)cc3c2cc2c1[nH]c1ccc(F)cc12`: the MIC is 8 µg/mL (≈ 21.9 µM).

As to `CCOC(=O)c1ccc2[nH]c3c(OCCN)c4[nH]c5ccc(C(=O)OCC)cc5c4cc3c2c1`, the MIC is above 8 µg/mL.

With `Nc1nnnn1CCCOc1c2[nH]c3ccc(Cl)cc3c2cc2c1[nH]c1ccc(Cl)cc12`, the MIC is above 8 µg/mL.

In another assay the test system is Brucella abortus (BAB; Gram-negative). In words: microbe, parasite or virus in culture. The class given is cell-based. As to conditions: read-out: MIC BAB.
Turning to `CN(C)CCOc1c2[nH]c3ccc(F)cc3c2cc2c1[nH]c1ccc(F)cc12` [drawing 195], the MIC worked out at 0.5 µg/mL (≈ 1.32 µM).

Consider `Nc1nnn(CCCOc2c3[nH]c4ccc(Cl)cc4c3cc3c2[nH]c2ccc(Cl)cc23)n1`, for which the MIC was found to be 1 µg/mL (≈ 2.14 µM).

`N[C@H]1CC[C@@H](Oc2c3[nH]c4ccc(F)cc4c3cc3c2[nH]c2ccc(F)cc23)CC1`: the MIC came to 0.5 µg/mL (≈ 1.23 µM).

On to `OC1CCN(CCCOc2c3[nH]c4ccc(Cl)cc4c3cc3c2[nH]c2ccc(Cl)cc23)CC1` [drawing 229], for which the MIC stood at 0.25 µg/mL (≈ 0.518 µM).

In the case of `C/N=C(\NC)NCCCOc1c2[nH]c3ccc(Cl)cc3c2cc2c1[nH]c1ccc(Cl)cc12`, the MIC came to 0.5 µg/mL (≈ 1.07 µM).

Regarding `Fc1ccc2[nH]c3c(OCCCn4cncn4)c4[nH]c5ccc(F)cc5c4cc3c2c1` [drawing 231], the MIC is 1 µg/mL (≈ 2.4 µM).

For the compound `NCCOc1c2[nH]c3ccc(F)cc3c2cc2c1[nH]c1ccc(F)cc12`, the MIC amounted to 1 µg/mL (≈ 2.85 µM).

Take `Clc1ccc2[nH]c3c(OCCC4CCNCC4)c4[nH]c5ccc(Cl)cc5c4cc3c2c1`: the MIC was at most 0.25 µg/mL.

Turning to `CNCCOc1c2[nH]c3ccc(F)cc3c2cc2c1[nH]c1ccc(F)cc12`, the MIC was found to be 0.5 µg/mL (≈ 1.37 µM).

Regarding `CCOC(=O)c1ccc2[nH]c3c(OCCN)c4[nH]c5ccc(C(=O)OCC)cc5c4cc3c2c1`, the MIC turned out to be 1 µg/mL (≈ 2.18 µM).

For `Nc1nnnn1CCCOc1c2[nH]c3ccc(Cl)cc3c2cc2c1[nH]c1ccc(Cl)cc12`, the MIC was 0.5 µg/mL (≈ 1.07 µM).

The test system of the next assay is Burkholderia mallei (BM; Gram-negative). As to the kind of experiment: microbe, parasite or virus in culture. The assay is classed as cell-based. To be noted: read-out: MIC BM.
Regarding `CN(C)CCOc1c2[nH]c3ccc(F)cc3c2cc2c1[nH]c1ccc(F)cc12` [drawing 195], the MIC came to 4 µg/mL (≈ 10.5 µM).

`Nc1nnn(CCCOc2c3[nH]c4ccc(Cl)cc4c3cc3c2[nH]c2ccc(Cl)cc23)n1`: the MIC is above 8 µg/mL.

Turning to `N[C@H]1CC[C@@H](Oc2c3[nH]c4ccc(F)cc4c3cc3c2[nH]c2ccc(F)cc23)CC1`, the MIC was above 8 µg/mL.

Regarding `OC1CCN(CCCOc2c3[nH]c4ccc(Cl)cc4c3cc3c2[nH]c2ccc(Cl)cc23)CC1` [drawing 229], the MIC was 8 µg/mL (≈ 16.6 µM).

For the compound `C/N=C(\NC)NCCCOc1c2[nH]c3ccc(Cl)cc3c2cc2c1[nH]c1ccc(Cl)cc12`, the MIC turned out to be 4 µg/mL (≈ 8.54 µM).

Regarding `Fc1ccc2[nH]c3c(OCCCn4cncn4)c4[nH]c5ccc(F)cc5c4cc3c2c1` [drawing 231], the MIC was above 8 µg/mL.

As for `NCCOc1c2[nH]c3ccc(F)cc3c2cc2c1[nH]c1ccc(F)cc12`, the MIC turned out to be 8 µg/mL (≈ 22.8 µM).

For the compound `Clc1ccc2[nH]c3c(OCCC4CCNCC4)c4[nH]c5ccc(Cl)cc5c4cc3c2c1`, the MIC came to 4 µg/mL (≈ 8.84 µM).

Regarding `CNCCOc1c2[nH]c3ccc(F)cc3c2cc2c1[nH]c1ccc(F)cc12`, the MIC was found to be 4 µg/mL (≈ 10.9 µM).

`CCOC(=O)c1ccc2[nH]c3c(OCCN)c4[nH]c5ccc(C(=O)OCC)cc5c4cc3c2c1`: the MIC was above 8 µg/mL.

Take `Nc1nnnn1CCCOc1c2[nH]c3ccc(Cl)cc3c2cc2c1[nH]c1ccc(Cl)cc12`: the MIC is above 8 µg/mL.

The next assay deals with Burkholderia pseudomallei (BP; Gram-negative). In words: microbe, parasite or virus in culture. The assay is classed as cell-based. As to conditions: read-out: MIC BP.
Regarding `CN(C)CCOc1c2[nH]c3ccc(F)cc3c2cc2c1[nH]c1ccc(F)cc12` [drawing 195], the MIC is 8 µg/mL (≈ 21.1 µM).

In the case of `Nc1nnn(CCCOc2c3[nH]c4ccc(Cl)cc4c3cc3c2[nH]c2ccc(Cl)cc23)n1`, the MIC was above 8 µg/mL.

As to `N[C@H]1CC[C@@H](Oc2c3[nH]c4ccc(F)cc4c3cc3c2[nH]c2ccc(F)cc23)CC1`, the MIC is above 8 µg/mL.

For the compound `OC1CCN(CCCOc2c3[nH]c4ccc(Cl)cc4c3cc3c2[nH]c2ccc(Cl)cc23)CC1` [drawing 229], the MIC is above 8 µg/mL.

Regarding `C/N=C(\NC)NCCCOc1c2[nH]c3ccc(Cl)cc3c2cc2c1[nH]c1ccc(Cl)cc12`, the MIC came to 4 µg/mL (≈ 8.54 µM).

With `Fc1ccc2[nH]c3c(OCCCn4cncn4)c4[nH]c5ccc(F)cc5c4cc3c2c1` [drawing 231], the MIC was above 8 µg/mL.

Take `NCCOc1c2[nH]c3ccc(F)cc3c2cc2c1[nH]c1ccc(F)cc12`: the MIC turned out to be 16 µg/mL (≈ 45.5 µM).

Turning to `Clc1ccc2[nH]c3c(OCCC4CCNCC4)c4[nH]c5ccc(Cl)cc5c4cc3c2c1`, the MIC was above 8 µg/mL.

Take `CNCCOc1c2[nH]c3ccc(F)cc3c2cc2c1[nH]c1ccc(F)cc12`: the MIC was determined as 16 µg/mL (≈ 43.8 µM).

As to `CCOC(=O)c1ccc2[nH]c3c(OCCN)c4[nH]c5ccc(C(=O)OCC)cc5c4cc3c2c1`, the MIC is above 8 µg/mL.

As to `Nc1nnnn1CCCOc1c2[nH]c3ccc(Cl)cc3c2cc2c1[nH]c1ccc(Cl)cc12`, the MIC is above 8 µg/mL.

In another assay the test system is Mycobacteruim tuberculosis H37Rv (H37Rv). As to the kind of experiment: microbe, parasite or virus in culture. The class given is cell-based. To be noted: Mycobacterium tuberculosis, read-out: MIC against Tubercle bacillus.
As to `N=C(N)NCCCOc1c2[nH]c3ccc(F)cc3c2cc2c1[nH]c1ccc(F)cc12` [drawing 277], the MIC came out at 10 µg/mL (≈ 24.5 µM).

For `Fc1ccc2[nH]c3c(OCCCNC4=NCCN4)c4[nH]c5ccc(F)cc5c4cc3c2c1` [drawing 278], the MIC is 10 µg/mL (≈ 23.1 µM).

Consider `COc1c2[nH]c3ccc(F)cc3c2cc2c1[nH]c1ccc(F)cc12` [drawing 271], for which the MIC was above 10 µg/mL.

Take `Cc1c2[nH]c3ccccc3c2cc2c1[nH]c1ccccc12` [drawing 281]: the MIC was determined as 10 µg/mL (≈ 37 µM).

Regarding `N=C(N)NCCCOc1c2[nH]c3ccc(Cl)cc3c2cc2c1[nH]c1ccc(Cl)cc12` [drawing 274], the MIC came out at 10 µg/mL (≈ 22.7 µM).

In the case of `CN(C)CCOc1c2[nH]c3ccc(F)cc3c2cc2c1[nH]c1ccc(F)cc12` [drawing 272], the MIC is 5 µg/mL (≈ 13.2 µM).

On to `OC1CCN(CCCOc2c3[nH]c4ccc(Cl)cc4c3cc3c2[nH]c2ccc(Cl)cc23)CC1` [drawing 275], for which the MIC came out at 10 µg/mL (≈ 20.7 µM).

Source of the values: patent publication US8399502B2, “Analogs of indole-3-carbinol and their use as agents against infection” (priority 2008, dated 2013).
